The values that follow come from patent publication US6436947B1, “Trans cyclopentanyl purine analogs useful as immunosuppressants” (Aventis Pharmaceuticals Inc., priority 1991, dated 2002).

Test [1] has as its system TNF-a production by peripheral blood mononuclear cells. Kind of test: Inhibition of Tumor Necrosis Factor alpha in LPS-stimulated PBMC adherent cells (ELISA). Format: cell-based. To be noted: human PBMC adherent cells, 1 μg/ml LPS, 18 hours. The method, then:
Peripheral blood mononuclear cells (PBMC) are isolated from venous blood collected from healthy volunteers in sodium citrate (5 ml of 3.6% sodium citrate for 45 ml of blood) by density gradient centrifugation of 5 minutes at 1500 rpm. The PBMC are resuspended in about 10 ml of RPMI-1640 with antibiotics. Approximately 2×10^6 cells of PBMC are added to tissue culture plates, incubated for 45-60 minutes at 37 C with 5% CO2, aspirated, and washed twice by adding about 0.5 ml fresh RPMI-1640 with 10% non-mitogenic FBS (RPMI complete) and shaking for 15 to 30 seconds. 1.0 ml RPMI-1640 is added per well to the remaining adherent cells, which are pretreated with test compound solution about 15 minutes prior to endotoxin stimulation (1 μg/ml lipopolysaccharide from E. coli or solvent concentrations equal to those of test compounds.
Cultures are incubated for 18 hours t 37 C in 5% CO2. Supernatants are tested from TNF-a using a commercial ELISA kit (Cistron, Pine Brook, N.J.). The IC50 is determined using SOFTmax software program.

The subject of test [2] is Major Histocompatibility complex (MHC) class II antigen levels on macrophages. The experiment in a line: Regulation of MHC class II expression on macrophages from M. tuberculosis-treated rats (flow cytometry, OX-6/OX-42). Format: cell-based, rat. To be noted: 10 μM, 18 hours; positive control 59%. The protocol:
Using the method of Edwards (J. of Cell Biochemistry 5E, 155(1991)), the ability of a compound of formula (1) to reduce Major Histocompatibility complex (MHC) class II antigen levels on macrophages (MΦ) obtained from M. tuberculosis-treated rats may be measured. Cells obtained from treated rats are plated into tissue culture for a period of 4 hours to purify adherent cells, then treated with increasing levels of drug for a period of 18 hours. After this incubation period, cells are scraped from the dishes and stained using flow cytometry analysis with various monoclonal antibodies such as OX-6 a monoclonal antibody specific for MHC class II antigens and OX-42 a monoclonal antibody specific for rat macrophages.

Test [3] has as its system Rat macrophage antigen presentation to mBSA-reactive T-cell hybridoma / Interleukin-2 production. The experiment in a line: Regulation of macrophage antigen presentation to rat T-cell hybridoma (Interleukin-2 production). Format: cell-based. The method, then:
Using the method of Ku (Cellular Immunology 130, (1990)), and a Lewis (LEW/N) rat T-cell hybridoma reactive with the protein methylated bovine serum albumin (mBSA), the ability of a compound of formula (1) to regulate MΦ antigen presentation in vitro may be measured. Peritoneal macrophages obtained from LEW/N rats are plated into tissue culture and treated with 100 μg of mBSA and drug. A control is prepared similarly. After a period of 18 hours the cells are washed and incubated with the T-cell hybridoma for an additional 12 hours. Supernatants from these cultures are obtained and measured for content of Interleukin-2, a T-cell derived lymphokine which is produced by activated T-cells. […] Rat macrophage antigen presentation and the subsequent production of Interleukin-2 are inhibited when drug is administered over a concentration range from 0.1 to 100 μM as illustrated in the following table.

Test [4] relates to endotoxin-induced septic shock in CF1 mice. Kind of test: Mouse endotoxin lethality model (D-galactosamine/LPS). Format: in vivo. To be noted: 100 mg/kg i.p., pretreated t=-1 hr, 18 mg D-glactoseamine and 50 ng LPS, observed 8-72 hour. The method, then:
Using the method of Silverstein, (J. Exp. Med. 173, 357 (1991)) a mouse endotoxin lethality model may be used to determine if a compound of formula (1) has the ability to inhibit endotoxin-induced septic shock which is dependent on the production of Tumor Necrosis Factor-α (TNF-α). CF1 mice pretreated at time (t)=−1 hr with drug are challenged with 18 mg of D-glactoseamine and 50 ng of LPS, then observed for death over an 8-72 hour period.

SMILES strings stand for the structures. Counter-ions that a name gives are not always drawn.

Take `Nc1ncnc2c1ncn2[C@@H]1CCC[C@H]1O` (racemic) [(±)-Trans-1-(9-adenyl)-2-hydroxycyclopentane, reference compound]: 22.2 µM corresponded to half-maximal inhibition in test [1] (IC50).

In the case of `Cl.Nc1ncnc2c1ncn2[C@@H]1CC[C@@H](O)C1` (relative stereo) [Example 1, (1R,3R)-trans-1(9-Adenyl)cyclopentan-3-ol Hydrochloride], the “OX-6/OX-42 double positive macrophages” value in test [2] amounted to 39%. In addition, in test [3] (0.1 to 100 μM), the T-cell activation entry was “inhibits T-cell activation”. The “% Inhibition (antigen presentation / Interleukin-2 production)” value was found to be 7.6% in test [3] (in vitro concentration 0.1 μM), 30.9% in test [3] (in vitro concentration 1.0 μM), 48.7% in test [3] (in vitro concentration 10.0 μM) and 55.3% in test [3] (in vitro concentration 100.0 μM). Moreover, the “protection against endotoxin lethality” value in test [4] is recorded as “protects against endotoxin lethality”. The IC50 in test [1] came to 9 µM.

In turn, `Nc1nc(Cl)nc2c1ncn2[C@@H]1CC[C@@H](O)C1` (relative stereo) [Example 6, (1R,3R)-trans-1-[9-(6-Amino-2-chloropurinyl)]cyclopentan-3-ol Hydrochloride] returned an IC50 in test [1] of 4.1 µM.
